In patent US6881741B2 (ViroChem Pharma Inc., priority 2001, dated 2005):
Where a name gives a salt, the structure may show the parent alone.

Each compound was assayed against recombinant HCV NS5B (HCV RNA-dependent RNA polymerase) (Hepatitis C virus genotype 1b, UniProt P26663) (assay: biochemical). Conditions: HCV polymerase activity, list of compounds of Example 27; read-out: IC50 (polymerase activity).
recombinant HCV NS5B (HCV RNA-dependent RNA polymerase), sequence (P26663 2420-3010 limits assumed): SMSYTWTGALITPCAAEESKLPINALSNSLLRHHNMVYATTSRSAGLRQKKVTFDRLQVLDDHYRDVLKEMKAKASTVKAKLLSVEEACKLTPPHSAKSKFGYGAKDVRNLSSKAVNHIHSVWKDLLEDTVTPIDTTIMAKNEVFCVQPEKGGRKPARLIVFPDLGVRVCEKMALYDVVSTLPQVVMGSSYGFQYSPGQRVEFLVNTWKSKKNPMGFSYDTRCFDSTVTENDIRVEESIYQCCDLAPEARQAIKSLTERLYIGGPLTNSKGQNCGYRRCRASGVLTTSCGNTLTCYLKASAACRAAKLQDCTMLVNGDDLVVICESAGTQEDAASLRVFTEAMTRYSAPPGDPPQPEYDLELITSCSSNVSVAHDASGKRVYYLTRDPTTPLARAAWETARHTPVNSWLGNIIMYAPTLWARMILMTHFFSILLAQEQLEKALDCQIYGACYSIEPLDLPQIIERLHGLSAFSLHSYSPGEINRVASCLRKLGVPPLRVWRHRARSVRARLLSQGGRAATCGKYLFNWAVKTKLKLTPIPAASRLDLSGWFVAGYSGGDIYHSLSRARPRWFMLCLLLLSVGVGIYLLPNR

| SMILES | IC50 |
| --- | --- |
| CC(C)(C)OC(=O)N1CCCC(N(C(=O)c2ccc(Cl)cc2Cl)c2cc(-c3ccccc3)sc2C(=O)O)C1 (stereo not drawn) [Compound 511, 3-[(2-CARBOXY-5-PHENYL-THIOPHEN-3- YL)-(2,4-DICHLORO-BENZOYL)-AMINO]- PIPERIDINE-1-CARBOXYLIC ACID #TERT!-BUTYL ESTER] | < 5 µM |
| CC1CCC(C(=O)N(c2cc(-c3ccccc3)sc2C(=O)O)C2COC(C)(C)OC2)CC1 (stereo not drawn) [Compound 517, 3-[(2,2-DIMETHYL-[1,3]DIOXAN-5-YL)-(4- METHYL-CYCLOHEXANECARBONYL)- AMINO]-5-PHENYL-THIOPHENE-2- CARBOXYLIC ACID] | < 5 µM |
| CC(C)N(c1cc(-c2ccccc2)sc1C(=O)O)C(=O)[C@]1(C)CC[C@@H](C)CC1 [Compound 500, 3-[(1,4-DIMETHYL- CYCLOHEXANECARBONYL)-ISOPROPYL- AMINO]-5-PHENYL-THIOPHENE-2- CARBOXYLIC ACID] | < 5 µM |
| O=C(O)c1sc(-c2ccccc2)cc1N(Cc1cccc(Cl)c1)C(=O)C1CCC1 [Compound 481, 3-[(3-CHLORO-BENZYL)- CYCLOBUTANECARBONYL-AMINO]-5- PHENYL-THIOPHENE-2-CARBOXYLIC ACID] | 5 to 20 µM |
| CC(=O)N(Cc1ccc(C(F)(F)F)cc1)c1cc(-c2ccccc2)sc1C(=O)O [Compound 464, 3-[ACETYL-(4-TRIFLUOROMETHYL- BENZYL)-AMINO]-5-PHENYL-THIOPHENE- 2-CARBOXYLIC ACID] | 5 to 20 µM |
| CC(C)CC(=O)N(Cc1ccc(Cl)cc1)c1cc(-c2ccccc2)sc1C(=O)O [Compound 458, 3-[(4-CHLORO-BENZYL)-(3-METHYL- BUTYRYL)-AMINO]-5-PHENYL- THIOPHENE-2-CARBOXYLIC ACID] | 5 to 20 µM |
| O=C(O)c1sc(-c2ccccc2)cc1N(C(=O)c1ccc(Cl)cc1Cl)C1CCC(C(=O)O)C1 (stereo not drawn) [Compound 548, 3-[(3-CARBOXY-CYCLOPENTYL)-(2,4- DICHLORO-BENZOYL)-AMINO]-5- PHENYL-THIOPHENE-2-CARBOXYLIC ACID] | < 5 µM |
| CC(C)N(C(=O)c1ccc(Cl)cc1Cl)c1cc(-c2ccc3[nH]ccc3c2)sc1C(=O)O [Compound 488, 3-[(2,4-DICHLORO-BENZOYL)- ISOPROPYL-AMINO]-5-(1H-INDOL-5-YL)- THIOPHENE-2-CARBOXYLIC ACID] | < 5 µM |
| Cc1ccc(S(=O)(=O)Nc2cc(-c3ccccc3)sc2C(N)=O)c(C)c1 [Compound 568, 3-(2,4-DIMETHYL- BENZENESULFONYLAMINO)-5-PHENYL- THIOPHENE-2-CARBOXYLIC ACID AMIDE] | 5 to 20 µM |
| CC(C1CCN(C(=O)OCc2ccccc2)CC1)N(C(=O)c1ccc(Cl)cc1Cl)c1cc(-c2ccccc2)sc1C(=O)O (stereo not drawn) [Compound 523, 4-{1-[(2-CARBOXY-5-PHENYL-THIOPHEN- 3-YL)-(2,4-DICHLORO-BENZOYL)-AMINO]- ETHYL}-PIPERIDINE-1-CARBOXYLIC ACID BENZYL ESTER] | 5 to 20 µM |

Same assay, conditions: related polymerase activity (Example 27 list); read-out: IC50

| SMILES | IC50 |
| --- | --- |
| Cc1cc(Br)ccc1S(=O)(=O)Nc1cc(-c2ccccc2)sc1C(=O)O [Compound 220, 3-(4-BROMO-2-METHYL-BENZENESULFONYLAMINO)-5-PHENYL-THIOPHENE-2-CARBOXYLIC ACID] | < 5 µM |
| NC(=O)c1ccc(-c2cc(NS(=O)(=O)c3ccc(Cl)cc3)c(C(=O)O)s2)cc1 [Compound 265, 5-(4-CARBAMOYL-PHENYL)-3-(4-CHLORO-BENZENESULFONYLAMINO)-THIOPHENE-2-CARBOXYLIC ACID] | < 5 µM |
| CC(C)N(C(=O)c1ccc(Cl)cc1F)c1cc(-c2ccccc2)sc1C(=O)O [Compound 307, 3-[(4-CHLORO-2-FLUORO-BENZOYL)- ISOPROPYL-AMINO]-5-PHENYL- THIOPHENE-2-CARBOXYLIC ACID] | < 5 µM |
| Cc1ccccc1S(=O)(=O)Nc1cc(C(=O)c2ccccc2)sc1C(=O)O [Compound 82, 5-BENZOYL-3-(TOLUENE-2-SULFONYLAMINO)-THIOPHENE-2-CARBOXYLIC ACID] | 5 to 20 µM |
| CN(C(=O)c1ccc(Cl)cc1Cl)c1cc(-c2ccccc2)sc1C(=O)O [Compound 9, 3-[(2,4-DICHLORO-BENZOYL)-METHYL-AMINO]-5-PHENYL-THIOPHENE-2-CARBOXYLIC ACID] | < 5 µM |
| O=C(O)c1sc(-c2ccccc2)cc1NS(=O)(=O)c1cc(Cl)c(O)c(Cl)c1 [Compound 169, 3-(3,5-DICHLORO-4-HYDROXY-BENZENESULFONYLAMINO)-5-PHENYL-THIOPHENE-2-CARBOXYLIC ACID] | 5 to 20 µM |
| Cc1ccc(C(=O)N(C)c2cc(-c3cccc(N)c3)sc2C(=O)O)cc1 [Compound 271, 5-(3-AMINO-PHENYL)-3-[METHYL-(4-METHYL-BENZOYL)-AMINO]-THIOPHENE-2-CARBOXYLIC ACID] | 5 to 20 µM |
| CC1CCC(C(=O)N(C)c2cc(-c3ccccc3)sc2C(=O)O)CC1 (stereo not drawn) [Compound 286, 3-[METHYL-(4-METHYL-CYCLOHEXANECARBONYL)-AMINO]-5-PHENYL THIOPHENE-2-CARBOXYLIC ACID] | < 5 µM |
| Cc1ccccc1S(=O)(=O)Nc1cc(-c2ccc(N)cc2)sc1C(=O)O [Compound 165, 5-(4-AMINO-PHENYL)-3-(TOLUENE-2-SULFONYLAMINO)-THIOPHENE-2-CARBOXYLIC ACID] | 5 to 20 µM |
| Cc1ccc(C(=O)N(C)c2cc(-c3ccc(F)cc3)sc2C(=O)O)cc1 [Compound 197, 5-(4-FLUORO-PHENYL)-3-[METHYL-(4-METHYL-BENZOYL)-AMINO]-THIOPHENE-2-CARBOXYLIC ACID] | < 5 µM |
| CCOC(=O)c1c(C)[nH]c(C)c1S(=O)(=O)Nc1cc(-c2ccccc2)sc1C(=O)O [Compound 167, 4-(2-CARBOXY-5-PHENYL-THIOPHEN-3-YLSULFAMOYL)-2,5-DIMETHYL-1H-PYRROLE-3-CARBOXYLIC ACID ETHYL ESTER] | 5 to 20 µM |
| Cc1ccccc1S(=O)(=O)Nc1cc(-c2sccc2C)sc1C(=O)O [Compound 105, 3′-METHYL-4-(TOLUENE-2-SULFONYLAMINO)-[2,2′]BITHIOPHENYL-5-CARBOXYLIC ACID] | 5 to 20 µM |
| C=CCN(C(=O)c1ccc(C)cc1)c1cc(-c2ccccc2)sc1C(=O)O [Compound 162, 3-[ALLYL-(4-METHYL-BENZOYL)-AMINO]-5-PHENYL-THIOPHENE-2-CARBOXYLIC ACID] | < 5 µM |
| CC(C)N(C(=O)c1ccc(Cl)cc1Cl)c1cc(-c2ccc(C(=O)O)cc2)sc1C(=O)O [Compound 375, 5-(4-CARBOXY-PHENYL)-3-[(2,4- DICHLORO-BENZOYL)-ISOPROPYL- AMINO]-THIOPHENE-2-CARBOXYLIC ACID] | < 5 µM |
| COc1cc(C)ccc1S(=O)(=O)Nc1cc(-c2ccccc2)sc1C(=O)O [Compound 142, 3-(2-METHOXY-4-METHYL-BENZENESULFONYLAMINO)-5-PHENYL-THIOPHENE-2-CARBOXYLIC ACID] | 5 to 20 µM |
| CC(C)Cc1cc(N(C(=O)c2ccc(Cl)cc2Cl)C(C)C)c(C(=O)O)s1 [Compound 346, 3-[(2,4-DICHLORO-BENZOYL)- ISOPROPYL-AMINO]-5-ISOBUTYL- THIOPHENE-2-CARBOXYLIC ACID] | < 5 µM |
| O=C(O)c1sc(-c2ccccc2)cc1N(C(=O)c1ccc(Cl)cc1Cl)c1ccccc1 [Compound 208, 3-[(2,4-DICHLORO-BENZOYL)-PHENYL-AMINO]-5-PHENYL-THIOPHENE-2-CARBOXYLIC ACID] | < 5 µM |
| CC1CCCCC1C(=O)N(c1cc(-c2ccccc2)sc1C(=O)O)C(C)C (stereo not drawn) [Compound 378, 3-[ISOPROPYL-(2-METHYL- CYCLOHEXANECARBONYL)-AMINO]-5- PHENYL-THIOPHENE-2-CARBOXYLIC ACID] | 5 to 20 µM |
| Cc1ccccc1S(=O)(=O)Nc1cc(-c2ccc(C(=O)O)cc2)sc1C(=O)O [Compound 248, 5-(4-CARBOXY-PHENYL)-3-(TOLUENE-2-SULFONYLAMINO)-THIOPHENE-2-CARBOXYLIC ACID] | < 5 µM |
| CCC(C)N(C(=O)c1ccc(Cl)cc1Cl)c1cc(-c2ccccc2)sc1C(=O)O (stereo not drawn) [Compound 261, 3-[SEC-BUTYL-(2,4-DICHLORO-BENZOYL)-AMINO]-5-PHENYL-THIOPHENE-2-CARBOXYLIC ACID] | < 5 µM |
| O=C(O)c1sc(-c2ccccc2)cc1N(C(=O)c1ccc(Cl)cc1Cl)C1CCN(C(=O)c2ccc(Cl)cc2Cl)CC1 [Compound 363, 3-[(2,4-DICHLORO-BENZOYL)-[1-(2,4- DICHLORO-BENZOYL)-PIPERIDIN-4-YL]- AMINO)-5-PHENYL-THIOPHENE-2- CARBOXYLIC ACID] | < 5 µM |
| O=C(O)c1sc(-c2ccccc2)cc1NS(=O)(=O)c1cnc(Cl)c(Br)c1 [Compound 36, 3-(5-BROMO-6-CHLORO-PYRIDINE-3-SULFONYLAMINO)-5-PHENYL-THIOPHENE-2-CARBOXYLIC ACID] | > 20 µM |
| O=C(O)c1sc(-c2ccccc2)cc1NS(=O)(=O)c1cccc(F)c1 [Compound 49, 3-(3-FLUORO-BENZENESULFONYLAMINO)-5-PHENYL-THIOPHENE-2-CARBOXYLIC ACID] | < 5 µM |
| Cc1ccc(C(=O)N(C)c2cc(-c3ccccc3F)sc2C(=O)O)cc1 [Compound 266, 5-(2-FLUORO-PHENYL)-3-[METHYL-(4-METHYL-BENZOYL)-AMINO]-THIOPHENE-2-CARBOXYLIC ACID] | < 5 µM |
| CC(c1ccccc1)N(C(=O)c1ccc(Cl)cc1Cl)c1cc(-c2ccccc2)sc1C(=O)O (stereo not drawn) [Compound 264, 3-[(2,4-DICHLORO-BENZOYL)-(1-PHENYL-ETHYL)-AMINO]-5-PHENYL-THIOPHENE-2-CARBOXYLIC ACID] | < 5 µM |
| CN(C(=O)c1ccc(C(F)(F)F)c(F)c1F)c1cc(-c2ccccc2)sc1C(=O)O [Compound 278, 3-[(2,3-DIFLUORO-4-TRIFLUOROMETHYL-BENZOYL)-METHYL-AMINO]-5-PHENYL-THIOPHENE-2-CARBOXYLIC ACID] | 5 to 20 µM |
| Cc1ccccc1S(=O)(=O)Nc1cc(-c2nccs2)sc1C(=O)O [Compound 178, 5-THIAZOL-2-YL-3-(TOLUENE-2-SULFONYLAMINO)-THIOPHENE-2-CARBOXYLIC ACID] | < 5 µM |
| Cc1ccc(C(=O)N(C)c2cc(-c3ccc(F)c(F)c3)sc2C(=O)O)cc1 [Compound 270, 5-(3,4-DIFLUORO-PHENYL)-3-[METHYL-(4-METHYL-BENZOYL)-AMINO]-THIOPHENE-2-CARBOXYLIC ACID] | < 5 µM |
| Cc1cccc(N2CCN(C(=O)Nc3cc(-c4ccccc4)sc3C(=O)O)CC2)n1 [Compound 182, 3-{[4-(6-METHYL-PYRIDIN-2-YL)-PIPERAZINE-1-CARBONYL]-AMINO}-5-PHENYL-THIOPHENE-2-CARBOXYLIC ACID HYDROCHLORIDE] | 5 to 20 µM |
